{"source": "paper PMC7849180", "about": "(Frontiers in Pharmacology, 2020)", "key": {"[1]": {"system": "myelofibrosis", "assay": "Myelofibrosis in JAK2V617F bone marrow transplanted mice", "assay_type": "in vivo", "details": "100 mg/kg, 5 weeks"}, "[2]": {"system": "CYP1A2", "assay_type": "in vitro ADME, human", "details": "0.10, 1.00, 10.0 μM", "from_the_text": "Suzhou Zelgen Biopharmaceuticals Co., Ltd. Jaktinib Hydrochloride Tablets Chemical Drug Class 1 New Drug […]\nmetabolite formed in human liver microsomes was the morpholine ring-opening metabolite M3. The enzyme phenotype involved in the oxidation of ZG0128 to form M3 was identified with reaction phenotyping assay using chemical inhibition and human recombinant CYP450 enzymes.\nUsing UPLC/Q-TOF MS, the amount of ZG0128 and primary alcohol metabolite formed by morpholine ring-opening (M3) in human liver microsomes and different incubation systems for human recombinant enzymes, including CYP1A2, CYP2A6, […]\ninhibitor 1-ABT, CYP3A inhibitor ketoconazole, and CYP2C8 inhibitor quercetin can […]\nfor human liver microsomes and inhibit the formation of M3. […]\nprimary enzyme that produced M3 while CYP1A2, 2D6 and 2C9 were also partly involved. Results from the reaction phenotyping assay using chemical inhibition and […]\nmicrosomes was a morpholine ring-opening metabolite catalyzed mainly by CYP3A4 […]\nInhibition and Induction of ZG0128 on CYP-P450s\nThe inhibition and induction potentials of ZG0128 on CYP-P450s were evaluated using mixed human liver microsomes and human primary hepatocytes as the in vitro […]\nhydroxylation), and CYP3A4 (testosterone 6β-hydroxylation), with an IC50 greater than […]. […]"}, "[3]": {"assay": "Plasma pharmacokinetics, single ascending dose (SAD)", "assay_type": "in vivo, human", "details": "for Cmax, geometric mean (CV%) / Tmax, median (min–max): fasting", "procedure": "(§1) In SAD part, volunteers were designed into eight SAD cohorts (25, 50, 100, 150, 200, 250, 300 and 400 mg). Among these cohorts, 25 mg was bisected by the 50 mg specification under good manufacturing practices (GMP) condition and provided the certificate of analysis. […] Jaktinib or placebo was administrated after an overnight fast.\nFor MAD cohorts, blood samples were collected at 0, 0.25, 0.5, 1, 1.5, 2, 3, 4, 5, 6, 8 and 12 h on day 1; 0 h on day 2, 3, 4, 6 and 7; 0, 0.25, 0.5, 1, 1.5, 2, 3, 4, 5, 6, 8, 12, 24, 36 and 48 h on day 10. In food effect cohort, blood samples were collected at 0, 0.25, 0.5, 1, 1.5, 2, 3, 4, 5, 6, 8, 12, 24, 36, 48, 72, 96 and 120 h in period one of group A; 0, 0.25, 0.5, 1, 1.5, 2, 3, 4, 5, 6, 8, 12, 24, 36 and 48 h in period two of group A and the two periods of group B. Blood samples were centrifuged at 3,000 rpm for 10 min at 2–8 °C and stored at -80 °C until liquid chromatography-mass spectrophotometry (LC-MS/MS) analysis. Urine and feces samples were collected in period one of group A of food effect cohort with the intervals 0, 0–6, 6–12, 12–24, 24–48, 48–72, 72–96, 96–120 and 0–120 h, respectively. […]"}, "[4]": {"assay": "Treatment-related AEs (NCI CTCAE), SAD cohorts", "assay_type": "in vivo, human", "procedure": "as §1\nDose-limiting toxicities (DLTs) were defined according to the NCI CTCAE v.4.03 as any occurrence of the following drug-related adverse events (AEs): more than one third of volunteers suffered Grade ≥4 drug-related hematological toxicities or Grade ≥3 drug-related nonhematological toxicities; one drug-related serious adverse events (SAEs)."}, "[5]": {"details": "in vivo", "method": "Food effect part was a two-period crossover study and conducted after finishing both SAD and MAD parts. […] For group A, the urine and feces samples for pharmacokinetic (PK) analysis were collected in the first period.\nSafety was assessed according to the NCI CTCAE version 4.03, including AEs of changes in vital signs, 12-lead ECGs, abdominal ultrasound, chest X-ray, physical examination and clinical laboratory tests. Abdominal ultrasound and chest X-ray were only performed at screening. 12-lead ECGs, physical examination and clinical laboratory tests were conducted in screening and day 3 after administration in SAD cohorts; days 4, 7 and 12 in MAD cohorts; day 8 in food effect cohort. Vital signs were measured at screening and admission, 0 h (pre-dose) and 2, 6, 24, 48 h after administration in SAD cohorts; 0, 2, 6 h on day 1, 0 h on days 2, 3, 4, 7, 0, 2, 6, 24, 48 h after the last dose in MAD cohorts; 0, 2, 6, 24, 48, 72, 120 h in period 1 and 2, 6, 24, 48 h in period two in food effect cohort."}, "[6]": {"details": "25–400 mg, linear mixed effects model"}, "[7]": {"details": "all SAD volunteers who received jaktinib"}}}
{"compound": "Cl.Cl.O.[2H]C1([2H])COCC([2H])([2H])N1c1ccc(Nc2nccc(-c3ccc(C(=O)NCC#N)cc3)n2)cc1", "note": "[ZG0128, Jaktinib Dihydrochloride Monohydrate]", "values": [{"measurement": "progression of myelofibrosis", "setting": "[1]", "value": "significantly and effectively inhibited the progression of myelofibrosis"}, {"measurement": "in vitro induction", "setting": "[2]", "value": "no in vitro induction"}]}
{"compound": "Jaktinib", "values": [{"measurement": "slope (90% CI) for ln AUC0-∞ vs dose", "setting": "[3]; [6]", "value": "1.15 (0.96–1.34)"}, {"measurement": "slope (90% CI) for ln Cmax vs dose", "setting": "[3]; [6]", "value": "1.00 (0.86–1.15)"}, {"measurement": "Cmax, geometric mean (CV%)", "setting": "[3]; single 25 mg dose", "value": "34.50 (51.6) ng/ml"}, {"measurement": "Tmax, median (min–max)", "setting": "[3]; single 25 mg dose", "value": "2.00 (1.00–4.00) h"}, {"measurement": "Cmax, geometric mean (CV%)", "setting": "[3]; single 50 mg dose", "value": "77.56 (72.8) ng/ml"}, {"measurement": "Tmax, median (min–max)", "setting": "[3]; single 50 mg dose", "value": "3.00 (0.50–5.00) h"}, {"measurement": "Cmax, geometric mean (CV%)", "setting": "[3]; single 100 mg dose", "value": "183.48 (33.3) ng/ml"}, {"measurement": "Tmax, median (min–max)", "setting": "[3]; single 100 mg dose", "value": "1.25 (0.50–3.00) h"}, {"measurement": "Cmax, geometric mean (CV%)", "setting": "[3]; single 150 mg dose", "value": "297.18 (36.6) ng/ml"}, {"measurement": "Tmax, median (min–max)", "setting": "[3]; single 150 mg dose", "value": "2.50 (1.50–4.00) h"}, {"measurement": "Cmax, geometric mean (CV%)", "setting": "[3]; single 200 mg dose", "value": "354.52 (44.6) ng/ml"}, {"measurement": "Tmax, median (min–max)", "setting": "[3]; single 200 mg dose", "value": "2.50 (1.00–3.00) h"}, {"measurement": "Cmax, geometric mean (CV%)", "setting": "[3]; single 250 mg dose", "value": "404.20 (36.9) ng/ml"}, {"measurement": "Tmax, median (min–max)", "setting": "[3]; single 250 mg dose", "value": "2.00 (1.00–4.00) h"}, {"measurement": "Cmax, geometric mean (CV%)", "setting": "[3]; single 300 mg dose", "value": "510.54 (35.4) ng/ml"}, {"measurement": "Tmax, median (min–max)", "setting": "[3]; single 300 mg dose", "value": "3.00 (0.50–5.00) h"}, {"measurement": "Cmax, geometric mean (CV%)", "setting": "[3]; single 400 mg dose", "value": "579.35 (42.6) ng/ml"}, {"measurement": "Tmax, median (min–max)", "setting": "[3]; single 400 mg dose", "value": "3.50 (2.00–5.00) h"}, {"measurement": "CL/F, range across cohorts", "setting": "[3]; single dose 25–400 mg", "value": "76.212 to 150.190", "unit": "L/h"}, {"measurement": "Vz/F, range across cohorts", "setting": "[3]; single dose 25–400 mg", "value": "533.561 to 1033.554", "unit": "L"}, {"measurement": "median Tmax, range across cohorts", "setting": "[3]; single dose 25–400 mg jaktinib", "value": "1.25 to 3.5", "unit": "h"}, {"measurement": "t1/2, range across cohorts", "setting": "[3]; single dose 25–400 mg jaktinib", "value": "2.952 to 9.040", "unit": "h"}, {"measurement": "Elevated serum creatinine", "setting": "[4]; 25 mg, Grade 1–2", "value": "1 (16.7) n (%)"}, {"measurement": "Hematuria", "setting": "[4]; 100 mg, Grade 1–2", "value": "1 (16.7) n (%)"}, {"measurement": "Fecal leukocytosis", "setting": "[4]; 150 mg, Grade 1–2", "value": "1 (16.7) n (%)"}, {"measurement": "Hyperglycemia", "setting": "[4]; 150 mg, Grade 1–2", "value": "1 (16.7) n (%)"}, {"measurement": "Mucous stool", "setting": "[4]; 150 mg, Grade 1–2", "value": "1 (16.7) n (%)"}, {"measurement": "Positive fecal occult blood", "setting": "[4]; 150 mg, Grade 1–2", "value": "1 (16.7) n (%)"}, {"measurement": "Upper abdominal pain", "setting": "[4]; 150 mg, Grade 1–2", "value": "1 (16.7) n (%)"}, {"measurement": "Urinary sediment positive", "setting": "[4]; 150 mg, Grade 1–2", "value": "1 (16.7) n (%)"}, {"measurement": "Urine erythrocyte positive", "setting": "[4]; 150 mg, Grade 1–2", "value": "3 (50.0) n (%)"}, {"measurement": "Urine leukocyte positive", "setting": "[4]; 150 mg, Grade 1–2", "value": "2 (33.3) n (%)"}, {"measurement": "Nausea", "setting": "[4]; 200 mg, Grade 1–2", "value": "1 (16.7) n (%)"}, {"measurement": "Urine erythrocyte positive", "setting": "[4]; 200 mg, Grade 1–2", "value": "1 (16.7) n (%)"}, {"measurement": "Fever", "setting": "[4]; 250 mg, Grade 1–2", "value": "1 (16.7) n (%)"}, {"measurement": "Headache", "setting": "[4]; 250 mg, Grade 1–2", "value": "1 (16.7) n (%)"}, {"measurement": "Varicella", "setting": "[4]; 250 mg, Grade 3", "value": "1 (16.7) n (%)"}, {"measurement": "Dizziness", "setting": "[4]; 300 mg, Grade 1–2", "value": "1 (16.7) n (%)"}, {"measurement": "Fever", "setting": "[4]; 300 mg, Grade 1–2", "value": "1 (16.7) n (%)"}, {"measurement": "Headache", "setting": "[4]; 300 mg, Grade 1–2", "value": "4 (66.7) n (%)"}, {"measurement": "Lymphocytopenia", "setting": "[4]; 300 mg, Grade 1–2", "value": "1 (16.7) n (%)"}, {"measurement": "Neutrophilic granulocytosis", "setting": "[4]; 300 mg, Grade 1–2", "value": "1 (16.7) n (%)"}, {"measurement": "Anemia", "setting": "[4]; 400 mg, Grade 1–2", "value": "1 (16.7) n (%)"}, {"measurement": "volunteers with treatment-related AEs", "setting": "[4]; all SAD cohorts", "value": 28.1, "unit": "%"}, {"measurement": "Headache incidence", "setting": "[4]; [7]", "value": 10.4, "unit": "%"}, {"measurement": "positive urine erythrocyte incidence", "setting": "[4]; [7]", "value": 8.3, "unit": "%"}, {"measurement": "treatment-related Grade 4–5 AEs", "setting": "[5]", "value": "Note: No treatment-related Grade 4–5 AEs observed in food effect cohorts."}]}
